How the values were obtained:
HepG2 cells = assay: Annexin-V-FITC/PI apoptosis assay; type: cell-based, human; conditions: HepG2, compound at its IC50, 24 h
Method: Then, the cells were washed with PBS and detached by trypsin. The detached cells were collected into a 15-mL centrifuged tube, washed with ice-cold PBS twice, and centrifuged at 1200 rpm for 5 min. A volume of 0.1 mL binding buffer was added to the treated HepG-2 cells, followed by adding 5 μL of annexin V-FITC and 5 μL of 50 μg/mL PI staining reagents. After mixing and reacting at 25 °C for 15 min in the dark, the apoptotic cell percentages were analyzed by a flow cytometer [FACS Calibur flow cytometer (BD Biosciences)] (Table S5).

CDK-2 = target: T1, CDK-2 (Homo sapiens, UniProt P24941); assay: Kinase-Glo Plus luminescence kinase inhibition assay, CDK-2; type: biochemical; conditions: for IC50: 10 µM ATP, 30 °C, 40 min, mean ± SEM
T1 construct: purchased BPS Bioscience 41101
Method: The enzyme inhibition assay for the tested molecules was performed at BPS Bioscience Corporation, San Diego, CA, USA. The following materials served as the enzyme sources, Poly (Glu, Tyr) sodium salt (4:1, Glu:Tyr) (Sigma#P7244) served as the standardized substrate, and the Kinase-Glo Plus Luminescence kinase assay kit (Promega # V3772) was used. […] Glo Plus luminescence kinase assay kits. The assays were performed using Kinase-Glo Plus luminescence (Promega Corporation, Madison, WI, USA).
The tested molecules 9, 20, and indurbin were diluted to 100 µL in DMSO (10%), and 5 µL of the solution was added to a 50-µL enzyme reaction until the final concentration of DMSO was 1% in all of reactions. The enzymatic reactions were conducted at 30 °C for 40 min. The reaction mixture contained enzyme substrate and respective kinases. After the enzymatic reaction, 50 µL of enzyme-Glo Plus luminescence […] assay solution (Promega) was added to each reaction, and the plate was incubated for 5 min at room temperature. The luminescence signal was measured using a BioTek Synergy 2 microplate reader. The luminescence data were analyzed using the computer software GraphPad Prism. The difference between luminescence intensities in the absence of enzyme (Lut) and in the presence of enzyme (Luc) was defined as 100% activity (Lut − Luc). The values of enzyme activity percentages versus five concentrations of the small molecule were then plotted using a non-linear regression analysis of the sigmoidal dose–response curve. The IC50 value was determined using GraphPad Prism software. All experiments were repeated three times (Table S3).
Glo Plus luminescence kinase assay kits were used in these assays. The assay was done at Bioscience Laboratory BPS, California, USA. The assay measures kinase activity by quantitating the amount of ATP remaining in the solution following kinase reaction. The luminescent signal from the assay was correlated with the amount of ATP present and inversely correlated with kinase activity. […] All of the enzymatic reactions were conducted at 30 °C for 40 min. The reaction mixture contained 40 mM Tris, pH 7.4, 10 mM MgCl2, 0.1 mg/mL BSA, 1 mM DTT, 10 µM ATP, Kinase substrate, and VEGFR-2, EFGR, CDK-2 and CDK-4 enzymes. After the enzymatic reaction, 50 µL of Kinase-Glo Plus Luminescence kinase assay solution (Promega) was added to each reaction, and the plate was incubated for 5 min at room temperature. The luminescence signal was measured using a BioTek Synergy 2 microplate reader. Kinase activity assays were performed in triplicate for each concentration. The luminescence data were analyzed using the Graphpad Prism software.

MCF-7 cells = assay: MTT cytotoxicity assay on MCF-7 cells; type: cell-based; conditions: Homo sapiens, MCF7; for viability at 1.25 µM: MCF-7, 1.25 µM; for viability at 1.25 µM / viability at 2.5 µM / viability at 5 µM / viability at 10 µM / viability at 20 µM / viability at 40 µM / viability at 80 µM / viability at 160 µM: Table S2; for viability at 2.5 µM: MCF-7, 2.5 µM; for viability at 5 µM: MCF-7, 5 µM; for viability at 10 µM: MCF-7, 10 µM; for viability at 20 µM: MCF-7, 20 µM; for viability at 40 µM: MCF-7, 40 µM; for viability at 80 µM: MCF-7, 80 µM; for viability at 160 µM: MCF-7, 160 µM; for IC50: MTT, 24 h treatment, mean of three experiments ± SEM, read-out: IC50 (µM) MCF-7
Method: Cytotoxic activity of the synthesized compounds was evaluated against HepG-2 and MCF-7 cancer cell lines using the MTT assay. The tested cell lines were obtained from the American Type Culture Collection (ATCC, […], USA) through the Tissue Culture Unit, The Egyptian Organization for Biological Products and Vaccines (Vacsera, Giza, Egypt). Indirubin, chemicals, and solvents were purchased from Sigma-Aldrich (St. Louis, MO, USA). The cells were grown on RPMI-1640 medium supplemented with 10% inactivated fetal calf serum and 50 µg/mL gentamycin. The cells were maintained at 37 °C in a humidified atmosphere with 5% CO2 and were sub-cultured two to three times per week. For antitumor assays, the tumor cell lines were suspended in the medium at concentration 5 × 10^4 cell/well in Corning® 96-well tissue culture plates (Corning, Corning, NY, USA), then incubated for 24 h. The tested molecules were then added to 96-well plates (six replicates) to achieve six concentrations for each compound. Six vehicle controls with media or 0.5% DMSO were run for each 96-well plate as a control. After incubating for 24 h, the numbers of viable cells were determined by the MTT test. Briefly, the media was removed from the 96 well plate and replaced with 100 µL of fresh culture RPMI 1640 medium without phenol red then 10 µL of the 12 mM MTT stock solution (5 mg of MTT in 1 mL of PBS) to each well including the untreated controls. The 96-well plates were then incubated at 37 °C and 5% CO2 for 4 h. An 85 µL aliquot of the media was removed from the wells, and 50 µL of DMSO was added to each well, mixed thoroughly with the pipette, and incubated at 37 °C for 10 min. Then, the optical density was measured at 590 nm with the microplate reader (SunRise, TECAN, Inc., Morrisville, NC, USA) to determine the number of viable cells, and the percentage of viability was calculated as […], where ODt is the mean optical density of wells treated with the tested sample and ODc is the mean optical density of untreated cells. The relation between surviving cells and drug concentration was plotted to obtain the survival curve of each tumor cell line after treatment with the specified compound. […] Each concentration was repeated four times.

O=C1Nc2ccc(Cl)cc2C1=Nc1ccc2nc[nH]c(=O)c2c1 [Compound 9, 6-(5-Chloro-2-oxo-1,2-dihydro-indol-3-ylideneamino)-3H-quinazolin-4-one]
Apoptosis Early (HepG2 cells): 5.05%
Apoptosis Late (HepG2 cells): 3.72%
Apoptosis Total (HepG2 cells): 8.77%
Necrosis (HepG2 cells): 2.69%
increase of cell population at late apoptosis compared with untreated control (HepG2 cells): around 11 fold
increase of cells in early apoptotic stage compared with untreated control (HepG2 cells): around 6 fold
IC50 (CDK-2): 9.39 ± 0.51 nM
fold higher inhibitory effect than indirubin against CDK-2 (CDK-2; relative to indirubin): 4.8 fold
viability at 1.25 µM (MCF-7 cells): 90.5 ± 7.8%
viability at 2.5 µM (MCF-7 cells): 72.8 ± 6.3%
viability at 5 µM (MCF-7 cells): 64.1 ± 4.5%
viability at 10 µM (MCF-7 cells): 49 ± 2%
viability at 20 µM (MCF-7 cells): 34.4 ± 0.2%
viability at 40 µM (MCF-7 cells): 18.2 ± 1%
viability at 80 µM (MCF-7 cells): 14.8 ± 1.3%
viability at 160 µM (MCF-7 cells): 8.7 ± 1.2%
IC50 (MCF-7 cells): 7.54 ± 0.71 µM

O=C1Nc2ccc(Cl)cc2C1=Nc1ccc(-c2nc3ccccc3c(=O)[nH]2)cc1 [Compound 20, 2-[4-(5-Chloro-2-oxo-1,2-dihydro-indol-3-ylideneamino)-phenyl]-3H-quinazolin-4-one]
Apoptosis Early (HepG2 cells): 4.91%
Apoptosis Late (HepG2 cells): 6.75%
Apoptosis Total (HepG2 cells): 11.66%
Necrosis (HepG2 cells): 1.91%
increase of cell population at late apoptosis compared with untreated control (HepG2 cells): ~21 fold
increase of cells in early apoptotic stage compared with untreated control (HepG2 cells): around 6 fold
IC50 (CDK-2): 225 ± 12.6 nM
viability at 1.25 µM (MCF-7 cells): 92.4 ± 5.7%
viability at 2.5 µM (MCF-7 cells): 84.3 ± 4.8%
viability at 5 µM (MCF-7 cells): 76.7 ± 4.2%
viability at 10 µM (MCF-7 cells): 67.9 ± 3.4%
viability at 20 µM (MCF-7 cells): 47.1 ± 3%
viability at 40 µM (MCF-7 cells): 24.6 ± 1.9%
viability at 80 µM (MCF-7 cells): 7.77 ± 0.9%
viability at 160 µM (MCF-7 cells): 4.1 ± 0.1%
IC50 (MCF-7 cells): 5.28 ± 0.22 µM

— article PMC11901902, “Design, Synthesis, and Cytotoxicity Evaluation of Novel Indolin-2-One Based Molecules on Hepatocellular Carcinoma HepG2 Cells as Protein Kinase Inhibitors” (Molecules, 2025)
